Laboratory results reported in PubChem BioAssay (NCI).
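Interpolation was linear, between the two tested concentrations surrounding the appropriate level; five concentrations were tested over 48 hours in 96-well plates. TGI: concentration producing complete growth inhibition.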

Key:
Assay in all cases: growth of human tumour cells (NCI), 48 h
[1] = tested on: 786-0 renal
[2] = tested on: A498 renal
[3] = tested on: A549 NSCLC
[4] = tested on: ACHN renal
[5] = tested on: CAKI-1 renal
[6] = tested on: CCRF-CEM leukemia
[7] = tested on: COLO 205 colon
[8] = tested on: DLD-1 colon
[9] = tested on: DMS 114 small cell lung
[10] = tested on: DMS 273 small cell lung
[11] = tested on: EKVX NSCLC
[12] = tested on: HCT-116 colon
[13] = tested on: HCT-15 colon
[14] = tested on: HOP-18 NSCLC
[15] = tested on: HOP-62 NSCLC
[16] = tested on: HOP-92 NSCLC
[17] = tested on: HT29 colon
[18] = tested on: IGROV1 ovarian
[19] = tested on: K-562 leukemia
[20] = tested on: KM12 colon
[21] = tested on: KM20L2 colon
[22] = tested on: LOX IMVI melanoma
[23] = tested on: LXFL 529 NSCLC
[24] = tested on: M14 melanoma
[25] = tested on: M19-MEL melanoma
[26] = tested on: MALME-3M melanoma
[27] = tested on: MOLT-4 leukemia
[28] = tested on: NCI-H226 lung
[29] = tested on: NCI-H23 lung
[30] = tested on: NCI-H460 lung
[31] = tested on: NCI-H522 lung
[32] = tested on: OVCAR-3 ovarian
[33] = tested on: OVCAR-4 ovarian
[34] = tested on: OVCAR-5 ovarian
[35] = tested on: OVCAR-8 ovarian
[36] = tested on: RPMI-8226 leukemia
[37] = tested on: RXF 393 renal
[38] = tested on: SF-268 CNS
[39] = tested on: SF-295 CNS
[40] = tested on: SF-539 CNS
[41] = tested on: SK-MEL-2 melanoma
[42] = tested on: SK-MEL-28 melanoma
[43] = tested on: SK-MEL-5 melanoma
[44] = tested on: SK-OV-3 ovarian
[45] = tested on: SN12C renal
[46] = tested on: SNB-19 CNS
[47] = tested on: SNB-75 CNS
[48] = tested on: SNB-78 CNS
[49] = tested on: SW-620 colon
[50] = tested on: TK-10 renal
[51] = tested on: U251 CNS
[52] = tested on: UACC-257 melanoma
[53] = tested on: UACC-62 melanoma
[54] = tested on: UO-31 renal
[55] = tested on: XF 498 CNS
[56] = tested on: HCC-2998 colon
[57] = tested on: HL-60(TB) leukemia
[58] = tested on: RXF-631 renal
[59] = tested on: SR leukemia

O=C(N/C(=C\c1ccc(/C=C(\NC(=O)c2ccccc2)c2nc3cc(Cl)ccc3[nH]2)cc1)c1nc2cc(Cl)ccc2[nH]1)c1ccccc1
TGI [1]: > 100 µM
TGI [2]: > 100 µM
TGI [3]: > 100 µM
TGI [4]: > 100 µM
TGI [5]: > 100 µM
TGI [6]: > 100 µM
TGI [7]: 51.3 µM
TGI [8]: > 100 µM
TGI [9]: > 100 µM
TGI [10]: 50.4 µM
TGI [11]: 91.9 µM
TGI [12]: 66.2 µM
TGI [13]: 76.1 µM
TGI [14]: > 100 µM
TGI [15]: > 100 µM
TGI [16]: > 100 µM
TGI [17]: > 100 µM
TGI [18]: > 100 µM
TGI [19]: 71 µM
TGI [20]: 88.7 µM
TGI [21]: 55.5 µM
TGI [22]: > 100 µM
TGI [23]: > 100 µM
TGI [24]: > 100 µM
TGI [25]: > 100 µM
TGI [26]: > 100 µM
TGI [27]: 39.8 µM
TGI [28]: > 100 µM
TGI [29]: > 100 µM
TGI [30]: > 100 µM
TGI [31]: 53.8 µM
TGI [32]: > 100 µM
TGI [33]: 87 µM
TGI [34]: > 100 µM
TGI [35]: > 100 µM
TGI [36]: 25.4 µM
TGI [37]: 85.3 µM
TGI [38]: 73.5 µM
TGI [39]: > 100 µM
TGI [40]: 78.5 µM
TGI [41]: 99.6 µM
TGI [42]: 53.8 µM
TGI [43]: 47.8 µM
TGI [44]: > 100 µM
TGI [45]: > 100 µM
TGI [46]: > 100 µM
TGI [47]: > 100 µM
TGI [48]: > 100 µM
TGI [49]: > 100 µM
TGI [50]: 79 µM
TGI [51]: > 100 µM
TGI [52]: > 100 µM
TGI [53]: 65 µM
TGI [54]: > 100 µM
TGI [55]: > 100 µM

C=C1C(=O)O[C@@H]2[C@H]1CCC(C)=C1C=CC(=O)[C@]12C
TGI [3]: 73 µM
TGI [4]: 30 µM
TGI [5]: 33.2 µM
TGI [6]: 26 µM
TGI [8]: 32.8 µM
TGI [9]: 29.8 µM
TGI [10]: 41.1 µM
TGI [11]: 31.1 µM
TGI [56]: 27.8 µM
TGI [12]: 26.7 µM
TGI [57]: 14 µM
TGI [14]: 29.7 µM
TGI [16]: 18.5 µM
TGI [17]: 24.2 µM
TGI [18]: 46.7 µM
TGI [19]: 90.2 µM
TGI [20]: 31.4 µM
TGI [23]: 26.7 µM
TGI [27]: 39.4 µM
TGI [28]: 43.4 µM
TGI [30]: 35.1 µM
TGI [31]: 6.96 µM
TGI [32]: 31 µM
TGI [34]: 31.8 µM
TGI [35]: 36.1 µM
TGI [36]: 49.7 µM
TGI [37]: 29.8 µM
TGI [58]: 23.6 µM
TGI [38]: 45.9 µM
TGI [39]: 32.7 µM
TGI [40]: 30 µM
TGI [41]: 79.4 µM
TGI [42]: 23.4 µM
TGI [43]: 27.5 µM
TGI [44]: 61.4 µM
TGI [45]: 29.3 µM
TGI [46]: 71.8 µM
TGI [47]: 34.4 µM
TGI [48]: 18.9 µM
TGI [59]: 43 µM
TGI [49]: 18.4 µM
TGI [50]: 38 µM
TGI [51]: 54 µM
TGI [52]: 27.1 µM
TGI [53]: 22.6 µM
TGI [54]: 28.7 µM
